Data: patent US12404267B2, “Solid state forms of n-[2-(2-{4-[2-(6,7-dimethoxy-3,4-dihydro-2(1H)-isoquinolinyl)ethyl]phenyl}-2H-tetrazol-5-yl)-4,5-dimethoxyphenyl]-4-oxo-4H-chromene-2-carboxamide and of its mesylate salt” (ASSIA CHEMICAL INDUSTRIES LTD., priority 2019, dated 2025)
Structures can show the parent of a compound that is named as a salt.

Assay: Solubility of solid state forms of Encequidar mesylate
Format: physicochemical
Settings: compared with amorphous Encequidar mesylate; no medium or method printed

In the case of `COc1cc2c(cc1OC)CN(CCc1ccc(-n3nnc(-c4cc(OC)c(OC)cc4NC(=O)c4cc(=O)c5ccccc5o4)n3)cc1)CC2` [Form B of Encequidar mesylate], the solubility is reported as “surprisingly greater than the solubility of amorphous Encequidar mesylate”.
